Measurements taken from PubChem BioAssay AID434955 (Southern Research Specialized Biocontainment Screening …, 2010).

Test system: M. tuberculosis H37Rv growth with meropenem, percent inhibition
Experiment: beta-lactam sensitization of Mtb H37Rv, H37Rv (AID 434955)

Row | SMILES | IC90
1 | O=C(CCN1CCOCC1)c1ccc(N2CCCCC2)cc1 | 72.7 µM
2 | O=C(Oc1c(-c2ccccc2)c(=O)n2c3c(cccc13)CC2)c1cccc([N+](=O)[O-])c1 | 62.3 µM
3 | Cc1cc(=O)[nH]c(N/N=C/c2c(F)c(F)c(F)c(F)c2F)n1 | 82.3 µM
4 | O=C(Nc1ccccc1)Nc1csc2ccccc12 | 20.9 µM
5 | O=S(=O)(Cc1ccccc1)c1cnc2ccccc2n1 | 48.6 µM
6 | COc1cc(C(=S)N2CCOCC2)ccc1OC(=O)c1ccc([N+](=O)[O-])cc1[N+](=O)[O-] | 5.92 µM
